According to US9951064B2, “Azaindazole compounds as inhibitors of T790M containing EGFR mutants” (Genentech, Inc., priority 2013, dated 2018):

What was measured:
EGFR T790M L858R = target: T1, EGFR T790M L858R (Homo sapiens, UniProt P00533, L858R/T790M); assay: EGFR T790M L858R biochemical assay (Caliper mobility shift); conditions: 5 μM ATP; apparent Ki (Morrison fit) converted by Cheng-Prusoff, Km of ATP 1.3 μM
T1 construct: purchased Life Technologies PV4879
Procedure: The exemplified compounds described herein were tested according to the assay below. The enzyme data reported in Tables 4-5 is generally a representative of multiple experiments.
Reactions proceed for 30 minutes at room temperature (22° C.) and are terminated with 80 mM 2,2′,2″,2′″-(ethane-1,2-diyldinitrilo)tetraacetic acid (EDTA). Product is detected using the Caliper mobility shift detection method where product and substrate are electrophoretically separated and measured.

[1] = target: T2, phosphor-EGFR in H1975(L585R/T790M) mutant EGFR expressing cells (Homo sapiens, UniProt P00533, L858R/T790M); assay: H1975 pEGFR MSD cellular assay; assay type: cell-based; conditions: NCI-H1975 cells, serum starved, 1 hour compound incubation, pEGFR Tyr1068 MSD; read-out: HI975 pEGFR EC50
T2 construct: host or cells: NCI-H1975
T2 sequence (P00533 25-1210 T790M/L858R): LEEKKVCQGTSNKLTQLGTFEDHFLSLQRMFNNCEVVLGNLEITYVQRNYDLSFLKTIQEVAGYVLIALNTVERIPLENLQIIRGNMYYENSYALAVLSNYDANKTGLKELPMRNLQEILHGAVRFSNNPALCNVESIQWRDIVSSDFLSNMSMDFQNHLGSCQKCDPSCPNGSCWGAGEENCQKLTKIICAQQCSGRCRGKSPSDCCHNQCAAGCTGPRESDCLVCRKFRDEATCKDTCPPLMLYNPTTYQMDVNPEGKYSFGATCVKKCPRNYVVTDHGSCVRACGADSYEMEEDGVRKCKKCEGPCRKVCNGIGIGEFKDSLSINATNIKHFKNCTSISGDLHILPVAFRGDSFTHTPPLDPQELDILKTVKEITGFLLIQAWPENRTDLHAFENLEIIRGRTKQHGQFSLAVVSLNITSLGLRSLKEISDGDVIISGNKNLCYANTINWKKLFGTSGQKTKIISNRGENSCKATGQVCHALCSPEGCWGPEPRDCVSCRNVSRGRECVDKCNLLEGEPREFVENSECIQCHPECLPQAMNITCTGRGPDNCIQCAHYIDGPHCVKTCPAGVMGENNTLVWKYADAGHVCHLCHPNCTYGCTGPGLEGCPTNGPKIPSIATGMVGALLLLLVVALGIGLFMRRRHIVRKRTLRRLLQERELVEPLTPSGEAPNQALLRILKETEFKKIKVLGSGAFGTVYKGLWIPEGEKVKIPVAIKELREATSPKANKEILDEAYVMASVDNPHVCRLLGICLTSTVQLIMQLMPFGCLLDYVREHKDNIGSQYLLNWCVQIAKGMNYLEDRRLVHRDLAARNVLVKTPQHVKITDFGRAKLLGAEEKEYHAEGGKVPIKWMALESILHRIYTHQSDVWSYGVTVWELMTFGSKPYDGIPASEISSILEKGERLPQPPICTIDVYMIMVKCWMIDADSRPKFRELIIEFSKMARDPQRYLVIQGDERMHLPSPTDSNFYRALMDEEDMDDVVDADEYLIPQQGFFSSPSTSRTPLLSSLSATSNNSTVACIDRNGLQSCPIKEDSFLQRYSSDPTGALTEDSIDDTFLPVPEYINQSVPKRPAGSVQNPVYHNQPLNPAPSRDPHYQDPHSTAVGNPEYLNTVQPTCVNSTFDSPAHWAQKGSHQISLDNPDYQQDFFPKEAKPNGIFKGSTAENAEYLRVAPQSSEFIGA
Procedure: H1975 pEGFR MSD Cellular Assays
These assays are intended for determining cellular. […] (Meso Scale Discovery Catalog# N31CB-1).
NCI-H1975 (ATCC Catalog# CRL-5908) cells are maintained in medium containing RPMI 1640, 10% FBS, 4 mM L-Glutamine, 1% Penicillin-Streptomycin, and 4.5 g/L Glucose. All cell culture reagents were purchased from Invitrogen/Gibco. Cells are cultured at 37° C. at 5% CO2 and split as recommended by ATCC.
Cell Plating and Serum Starvation:
H1975 cells are harvested and plated into sterile cell culture treated 384 well plates (Greiner catalog #781091) at a density of 30,000 cells/well in 50 ul culture medium and placed in a 37° C. at 5% CO2 incubator for six hours. After six hours, culture medium is aspirated and replaced with serum-free culture medium. Cells are then incubated with the serum-free medium overnight at 37° C. and 5% CO2.
The following day, test compounds are serially diluted in dimethyl sulfoxide (DMSO) and added to cells in serum free medium (final DMSO concentration 0.5%). Assay plates are then incubated for 1 hour at 37° C. and 5% CO2. Following 1 hour of compound incubation cells are then lysed and processed as per the MSD pEGFR assay kit protocol. Cell lysates are added to assay plates pre-coated with antibodies against phosphorylated EGFR. Phosphorylated EGFR in samples are allowed to bind to the capture antibodies overnight at 4° C. The detection antibody (anti-total EGFR, labeled with an electrochemiluminescent SULFO-TAG) is added to the bound lysate and incubated for 1 hour at room temperature. The MSD Read Buffer is added such that when a voltage is applied to the plate electrodes, the labels bound to the electrode surface emit light. The MSD Sector Instrument measures the intensity of the light, and quantitatively measures the amount of phosphorylated-EGFR in the sample. Percent inhibition of EGFR phosphorylation by varying concentrations of test compounds is calculated relative to untreated controls. EC50 values are calculated using the 4 parameter logistic nonlinear regression dose-response model.

[2] = test system: H1975 (EGFR T790M/L858R) cell proliferation; assay: H1975 proliferation assay (Cell Titer-Glo); assay type: cell-based; conditions: Homo sapiens, NCI-H1975, 72 h, NCI-H1975 cells, 72 hour incubation, read-out: H1975 antiproliferative EC50
Procedure: H1975 Proliferation Assays
All cell culture reagents were purchased from Invitrogen/Gibco. Cells are cultured at 37° C. at 5% CO2 and split as recommended by ATCC.

T1 sequence (P00533 25-1210 T790M/L858R): as above

Row | Structure (SMILES) | Ki (EGFR T790M L858R) [µM] | EC50 [1] [µM] | EC50 [2] [µM]
1 | CCC(C)n1nc(N2CC(C(C)(C)O)C2)c2cnc(Nc3ccnc(N4CCC(O)C(C)(C)C4)n3)cc21 (mixture of isomers) [Example 12, 1-(4-((1-(sec-Butyl)-3-(3-(2-hydroxypropan-2-yl)azetidin-1-yl)-1H-pyrazolo[4,3-c]pyridin-6-yl)amino)pyrimidin-2-yl)-3,3-dimethylpiperidin-4-ol] | 0.0022 | 0.0302 | 0.288
2 | CC(C)n1nc(N2CCOCC2)c2cnc(Nc3ccnc(N4CCC(O)C(F)C4)n3)cc21 (racemic) [Example 20, (±)-cis-3-Fluoro-1-[4-(1-isopropyl-3-morpholin-4-yl-1H-pyrazolo[4,3-c]pyridin-6-ylamino)pyrimidin-2-yl]piperidin-4-ol] | 0.0025 | 0.135 | 1.07
3 | CCC(C)n1nc(N2CCNC2=O)c2cnc(Nc3ccnc(N4CC[C@@H](OC)[C@@H](F)C4)n3)cc21 (mixture of isomers) [Example 26, (±)-1-(1-(sec-Butyl)-6-((2-(cis-3-fluoro-4-methoxypiperidin-1-yl)pyrimidin-4-yl)amino)-1H-pyrazolo[4,3-c]pyridin-3-yl)imidazolidin-2-one] | 0.0006 | 0.0144 | 0.108
4 | CC(C)n1nc(N2CCS(=O)(=O)CC2)c2cnc(Nc3ccnc(-c4cnn(S(=O)(=O)C5CC5)c4)n3)cc21 [Example 1, 4-(6-((2-(1-(Cyclopropylsulfonyl)-1H-pyrazol-4-yl)pyrimidin-4-yl)amino)-1-isopropyl-1H-pyrazolo[4,3-c]pyridin-3-yl)thiomorpholine 1,1-dioxide] | 0.609 | 0.606 | 2.02
5 | CC(C)n1nc(N2CC3(COC3)C2)c2cnc(Nc3ccnc(-c4cnn(CC5CC5)c4)n3)cc21 [Example 4, N-(2-(1-(Cyclopropylmethyl)-1H-pyrazol-4-yl)pyrimidin-4-yl)-1-isopropyl-3-(2-oxa-6-azaspiro[3.3]heptan-6-yl)-1H-pyrazolo[4,3-c]pyridin-6-amine] | 0.003 | 0.219 | 0.732
6 | CC(C)n1nc(N2CC3(COC3)C2)c2cnc(Nc3ccnc(-c4cnn(S(=O)(=O)C5CC5)c4)n3)cc21 [Example 5, N-(2-(1-(Cyclopropylsulfonyl)-1H-pyrazol-4-yl)pyrimidin-4-yl)-1-isopropyl-3-(2-oxa-6-azaspiro[3.3]heptan-6-yl)-1H-pyrazolo[4,3-c]pyridin-6-amine] | 0.001 | 0.0296 | 0.421
7 | CC(C)n1nc(N2CCOCC2)c2cnc(Nc3ccnc(-c4cnn(CC5CC5)c4)n3)cc21 [Example 9, N-(2-(1-(Cyclopropylmethyl)-1H-pyrazol-4-yl)pyrimidin-4-yl)-1-isopropyl-3-morpholino-1H-pyrazolo[4,3-c]pyridin-6-amine] | 0.0052 | 0.382 | 1.84
8 | CCS(=O)(=O)n1cc(-c2nccc(Nc3cc4c(cn3)c(NC3COC3)nn4C(C)C)n2)cn1 [Example 16, N^6-(2-(1-(Ethylsulfonyl)-1H-pyrazol-4-yl)pyrimidin-4-yl)-1-isopropyl-N^3-(oxetan-3-yl)-1H-pyrazolo[4,3-c]pyridine-3,6-diamine] | 0.0011 | 0.0797 | 0.921
9 | CC(C)n1nc(C2CCOC2)c2cnc(Nc3ccnc(-c4cnn(S(=O)(=O)C5CC5)c4)n3)cc21 (stereo not shown) [Example 19, N-(2-(1-(Cyclopropylsulfonyl)-1H-pyrazol-4-yl)pyrimidin-4-yl)-1-isopropyl-3-(tetrahydrofuran-3-yl)-1H-pyrazolo[4,3-c] pyridin-6-amine] | 0.0049 | 0.723 | 1.47
10 | CC(C)n1nc(N2CC[C@@H](C#N)C2)c2cnc(Nc3ccnc(-c4cnn(S(=O)(=O)C5CC5)c4)n3)cc21 [Example 28, (R)-1-(6-((2-(1-(Cyclopropylsulfonyl)-1H-pyrazol-4-yl)pyrimidin-4-yl)amino)-1-isopropyl-1H-pyrazolo[4,3-c]pyridin-3-yl)pyrrolidine-3-carbonitrile] | 0.0008 | 0.0157 | 0.121
11 | CCC(C)n1nc(N2CC(N)C(F)(F)C2)c2cnc(Nc3ccnc(N4CCC(C)(O)CC4)n3)cc21 (stereo not shown) [Example 184, 1-(4-(3-(4-Amino-3,3-difluoropyrrolidin-1-yl)-1-sec-butyl-1H-pyrazolo[4,3-c]pyridin-6-ylamino)pyrimidin-2-yl)-4-methylpiperidin-4-ol] | – | 0.0949 | 0.761
12 | CC(C)n1nc(N2C[C@@H](O)[C@@H](O)C2)c2cnc(Nc3ccnc(N4CCC(C)(O)CC4)n3)cc21 [Example 191, (±)-1-(6-(2-(4-Hydroxy-4-methylpiperidin-1-yl)pyrimidin-4-ylamino)-1-isopropyl-1H-pyrazolo[4,3-c]pyridin-3-yl)pyrrolidine-cis-3,4-diol] | – | 0.531 | > 10

Second part, the compound after the results:

Row | Ki (EGFR T790M L858R) [µM] | EC50 [1] [µM] | EC50 [2] [µM] | Structure (SMILES)
13 | 0.001 | 0.0193 | 0.216 | CCC(C)n1nc(N2CC3(COC3)C2)c2cnc(Nc3ccnc(-c4cnn(S(=O)(=O)C5CC5)c4)n3)cc21 (racemic) [Example 14, 1-(sec-Butyl)-N-(2-(1-(cyclopropylsulfonyl)-1H-pyrazol-4-yl)pyrimidin-4-yl)-3-(2-oxa-6-azaspiro[3.3]heptan-6-yl)-1H-pyrazolo[4,3-c]pyridin-6-amine]
14 | – | 0.0856 | 0.696 | CCC(C)n1nc(N2CC[C@H](O)C2=O)c2cnc(Nc3ccnc(-c4cnn(S(=O)(=O)C5CC5)c4)n3)cc21 (stereo partly drawn) [Example 185, (3S)-(1-sec-Butyl-6-(2-(1-(cyclopropylsulfonyl)-1H-pyrazol-4-yl)pyrimidin-4-ylamino)-1H-pyrazolo[4,3-c]pyridin-3-yl)-3-hydroxypyrrolidin-2-one]
15 | – | 0.0749 | 0.586 | CCC(C)n1nc(N2CC[C@@H](O)C2=O)c2cnc(Nc3ccnc(-c4cnn(S(=O)(=O)C5CC5)c4)n3)cc21 (stereo partly drawn) [Example 186, (3R)-1-(1-sec-Butyl-6-(2-(1-(cyclopropylsulfonyl)-1H-pyrazol-4-yl)pyrimidin-4-ylamino)-1H-pyrazolo[4,3-c]pyridin-3-yl)-3-hydroxypyrrolidin-2-one]
16 | – | 0.0755 | 0.813 | CCC(C)n1nc(N2CCN(C(=O)[C@H](C)O)CC2)c2cnc(Nc3ccnc(-c4cnn(S(=O)(=O)C5CC5)c4)n3)cc21 (stereo partly drawn) [Example 187, (2S)-1-(4-(1-sec-Butyl-6-(2-(1-(cyclopropylsulfonyl)-1H-pyrazol-4-yl)pyrimidin-4-ylamino)-1H-pyrazolo[4,3-c]pyridin-3-yl)piperazin-1-yl)-2-hydroxypropan-1-one]
17 | – | 0.0643 | 1.09 | CCC(C)n1nc(N2CCN(C(=O)[C@@H](C)O)CC2)c2cnc(Nc3ccnc(-c4cnn(S(=O)(=O)C5CC5)c4)n3)cc21 (stereo partly drawn) [Example 188, (2R)-1-(4-(1-sec-Butyl-6-(2-(1-(cyclopropylsulfonyl)-1H-pyrazol-4-yl)pyrimidin-4-ylamino)-1H-pyrazolo[4,3-c]pyridin-3-yl)piperazin-1-yl)-2-hydroxypropan-1-one]
18 | – | 0.474 | 5.59 | CCC(C)n1nc(N2C[C@@H](CO)NC2=O)c2cnc(Nc3ccnc(-c4cnn(S(=O)(=O)C5CC5)c4)n3)cc21 (stereo partly drawn) [Example 189, (4S)-1-(1-sec-Butyl-6-(2-(1-(cyclopropylsulfonyl)-1H-pyrazol-4-yl)pyrimidin-4-ylamino)-1H-pyrazolo[4,3-c]pyridin-3-yl)-4-(hydroxymethyl)imidazolidin-2-one]
19 | – | 0.0446 | 0.537 | CCC(C)n1nc(N2CC(C(C)O)C2)c2cnc(Nc3ccnc(-c4cnn(S(=O)(=O)C5CC5)c4)n3)cc21 (stereo not shown) [Example 190, 1-(1-(1-sec-Butyl-6-(2-(1-(cyclopropylsulfonyl)-1H-pyrazol-4-yl)pyrimidin-4-ylamino)-1H-pyrazolo[4,3-c]pyridin-3-yl)azetidin-3-yl)ethanol]
